The source of these data is patent US9771345B2, “Coferons and methods of making and using them” (Cornell University, priority 2009, dated 2017).

The series is described as follows: Alizarin Red S displacement: equilibrium between boronic acid and diols or other ligands. The format is physicochemical. The conditions noted are these: 0.10 M phosphate buffer, pH 7.4; no Keq range given. From the text:
To assess the potential of boronic acid diol pairs as potential summa linkers within Coferons, the Alizarin Red S method was used essentially as described (Springsteen, G. and Wang, B, Tetrahedron 58: 5291-5300 (2002), which is hereby incorporated by reference in its entirety). Alizarin Red S gives a red color when free in solution, and shifts to yellow when complexed to boronic acids.
To determine equilibria between boronic acid species and diols or other ligands, a solution containing 2.0×10^−3 M boronic acid, 1.0×10^−4 M of ARS in 0.10 M phosphate buffer, pH 7.4 was prepared. Diol or other ligands from 3×10^−2 M to 1.0×10^−4 M were serially diluted into the above boronic acid-ARS mix, and absorbance spectra were determined from 350 to 750 nm. (stock solutions were made to 100 mM in DMSO). The higher concentrations of diol would displace the boronic acid from complexation with ARS, liberating free ARS and turning the solution pink. The percent complexed and percent free ARS was determined by comparing absorbance level to fully complexed and free ARS at 440 and 550 nm. The approximate equilibrium constant Keq2 for a given boronic acid-diol complexation was estimated using the formula: Keq=[ARS−PBA]/[ARS]×[PBA] [PBA]=[ARS−PBA]/[ARS]×Keq [Sorb−PBA]=0.002−[PBA]−[ARS−PBA] [Sorb]=Total Sorb−[Sorb−PBA] Keq2=[Sorb PBA]/[Sorb]×[PBA] (where ARS=Alizarin Red S; Sorb=sorbitol; and PBA=Phenylboronic acid as an example).

The structures appear in SMILES notation.

As for `O=C(O)C(O)c1ccccc1` (racemic) [DL-mandelic acid, DL-Mandelic acid], the “affinity of diol or other ligand for boronic acids in aqueous solution (in words)” value (“affinity of diol or other ligand” for short) is on record as “lower affinities for boronic acids”. In the case of `O[C@@H]1CCCC[C@H]1O` (relative stereo) [trans-1,2-cyclohexanediol, trans-1,2-Cyclohexanediol], the “affinity of diol or other ligand” value was “lower affinities for boronic acids”. The entry for `CC(CO)(CO)CO` [1,1,1-tris(hydroxymethyl)ethane, 1,1,1-Tris(hydroxymethyl)ethane] is “lower affinities for boronic acids”.

On to `O=C(CO)CO` [1,3-dihydroxyacetone], for which the “affinity of diol or other ligand” value is “lower affinities for boronic acids”. The entry for `CC(CO)(CO)C(=O)O` [2,2-bis(hydroxymethyl)propionic acid, 2,2-Bis(hydroxymethyl)propionic acid] is “lower affinities for boronic acids”; for `O=C(O)C(O)c1cccc(F)c1F` (centres unmarked) [2,3-difluoromandelic acid, 2,3-Difluoromandelic acid] it is “lower affinities for boronic acids”.

Take `O=C(O)C(O)c1ccc(F)cc1F` (centres unmarked) [2,4-difluoromandelic acid, 2,4-Difluoromandelic acid]: the “affinity of diol or other ligand” value is reported as “lower affinities for boronic acids”. With `O=C(O)C(O)c1cc(F)ccc1F` (centres unmarked) [2,5-difluoromandelic acid, 2,5-Difluoromandelic acid] the entry was “lower affinities for boronic acids”; with `O=C(O)C(O)c1c(F)cccc1F` (centres unmarked) [2,6-difluoromandelic acid, 2,6-Difluoromandelic acid], “lower affinities for boronic acids”. In the case of `O=C(O)c1c(O)cccc1O` [2,6-dihydroxybenzoic acid, 2,6-Dihydroxybenzoic acid], the “affinity of diol or other ligand” value was “lower affinities for boronic acids”. With `CNc1ccccc1O` [2-(methylamino)phenol, 2-(Methylamino)phenol] the entry was “lower affinities for boronic acids”. With `CC(=O)Nc1ccccc1O` [2-acetamidophenol, 2-Acetamidophenol], the “affinity of diol or other ligand” value is listed as “lower affinities for boronic acids”. Consider `CC(N)(CO)CO` [2-amino-2-methyl-1,3-propanediol, 2-Amino-2-methyl-1,3-propanediol], for which the “affinity of diol or other ligand” value was “lower affinities for boronic acids”. For the molecule `Cc1ccc(O)c(N)c1` [2-amino-4-methylphenol, 2-Amino-4-methylphenol], the “affinity of diol or other ligand” value is “lower affinities for boronic acids”.

Regarding `O=C(O)C(O)c1ccccc1F` (centres unmarked) [2-fluoromandelic acid, 2-Fluoromandelic acid], the “affinity of diol or other ligand” value was “lower affinities for boronic acids”. `COc1cccc(CO)c1O` [2-hydroxy-3-methoxybenzyl alcohol, 2-Hydroxy-3-methoxybenzyl alcohol]: the “affinity of diol or other ligand” value is “lower affinities for boronic acids”. With `O=C(O)C(O)(C(F)(F)F)C(F)(F)F` [3,3,3-Trifluoro-2-hydroxy-2-(trifluoromethyl)propionic acid] the entry was “lower affinities for boronic acids”; with `CC(O)(C(=O)O)C(F)(F)F` (centres unmarked) [3,3,3-Trifluoro-2-hydroxy-2-methylpropionic Acid], “lower affinities for boronic acids”.

For `O=C(O)C(O)c1cc(F)cc(F)c1` (centres unmarked) [3,5-difluoromandelic acid, 3,5-Difluoromandelic acid], the “affinity of diol or other ligand” value is recorded as “lower affinities for boronic acids”.

As to `O=C(O)C1(O)CNC1` [3-hydroxyazetidine-3-carboxylic acid], the “affinity of diol or other ligand” value is recorded as “lower affinities for boronic acids”.
